# Like-named read-outs stand apart in the source and are kept apart here.
# Experiments:
# Assay type in all cases: in vivo
# [1] = test system: adult, Pyrethroid-susceptible horn fly (Haematobia irritans); assay: Adult pyrethroid-susceptible horn fly, treated filter paper (Table III); conditions: topical, 6 h, read-out: 6 Hour % Mortality
# Experimental: Test doses are expressed as μg of test substance per cm^2 of filter paper.
# 1) Prepare solutions of test compound in acetone such that 800 or 1000 μL contains the amount necessary to obtain the desired dose rate.
# 2) Pipette 800 or 1000 μL of test solution onto filter paper.
# 3) Filter papers are dried under a fume hood.
# 4) When dry, filter papers are placed in the petri dish tops. Dishes are generally held about 24 hours before test organism is added.
# 5) Two- to five-day-old horn flies (pyrethroid-susceptible or -resistant) which have had two or more blood meals are used in the assay. Flies are collected into a small vial from the holding cage. Vials are then chilled in a freezer for about 4 minutes to immobilize the flies. Immobilized flies are then distributed to petri dish bottoms, 12 to 25 flies per dish, then dishes are closed and inverted.
# 6) As soon as the flies become mobile (about 5 minutes), they are examined to detect any flies that are dead or injured. This number is subtracted from total number of flies in the dish.
# 7) Petri dishes are held at room temperature and examined at the desired time intervals which might be 10 minutes to 6 hours.
# 8) All dead flies are recorded at each examination time. A fly is considered dead if it cannot walk even though it may still be moving.
# 10) Percent mortality at any time period is calculated using the following formula: […]
# Number of dead flies-number dead @5 min/Total number of flies-number dead
# Percent mortality is then corrected for control mortality using Abbot's formula.
# [2] = test system: Dermacentor variabilis (American dog tick); assay: Contact activity against the larval American dog tick (Table II); conditions: topical
# Experimental: This test is designed to evaluate the contact activity of test compounds against the American dog tick. Test compounds are dissolved in 100% acetone to 1000, 300, 100, 10, 1 and 0.1 ppm. 100 μL of each of these dilutions is added to the bottom of a 20 mL glass scintillation vial with a pipettor. The vial is allowed to dry under a fume hood for 15 minutes. The vial is then turned in its side, and 250 μL of each dilution is applied to the sides of the vial. The vial is placed on a rolling machine and allowed to roll under the hood, coating the sides of the vial, until the acetone completely evaporates. The bottom of the vial measures 4.909 cm^2 and the sides measure 4.5 cm high×8.8 cm around, so that the total coated area of the scintillation vial measures 44.51 cm^2. The amount of test compound applied by each dilution equals 7.86, 2.36, 0.79, 0.079, 0.0079 and 0.00079 μg/cm^2, respectively. Unfed larval dog ticks are counted into the scintillation vials with a slightly damp paintbrush. Ten ticks are placed in each vial. These tests are done in replicates of two or three so that there are 20 to 30 ticks per rate/compound. Mortality readings are taken 4 and 24 hours after placing the ticks in the vials. To read the test, the vial is placed under a magnifying glass and tapped gently. […] Percent mortality is then calculated for each treatment.
# [3] = test system: Bovicola spp. (biting louse); assay: Activity against the adult biting louse (Table VI); conditions: dose 2.0 μg/cm^2
# Experimental: This test is designed to evaluate the activity of test compounds against the biting louse. Test compounds are dissolved in 100% acetone to 300, 100 and 10 ppm. 100 μL of each of these dilutions is added to the bottom of a 20 mL glass scintillation vial with a pipettor. The vial is allowed to dry under a fume hood for 15 minutes. The bottom of the vial measures 4.909 cm^2. The amount of test compound applied by each dilution equals 6.1, 2.0 and 0.2 μg/cm^2, respectively. Included in all tests are two to three replications of untreated vials. Lice are collected from the host animal and are used within 4 hours. The lice are counted into the scintillation vials with a slightly damp paintbrush. Five adult lice are placed in each vial. These tests are done in replicates of two or three so that there are 10 to 15 lice per rate/compound. Mortality readings are taken at 2 and 4 hours after placing the lice in the vials. To read the test, the vial is placed under a magnifying glass. […] Percent mortality is then calculated for each treatment.
# [4] = test system: Ctenocephalides felis (cat flea); assay: whole plant or invertebrate; conditions: topical, 24 h, read-out: 24 Hour % Mortality
# Experimental: (§1) This test is designed to evaluate the contact activity of test compounds against the adult cat flea. Test compounds are dissolved in 100% acetone to 300, 100, 10 and 1 ppm. 100 μL of each of these dilutions is added to the bottom of a 20 mL glass scintillation vial with a pipettor. The vial is allowed to dry under a fume hood for 15 minutes. The bottom of the vial measures 4.909 cm^2. The amount of test compound applied by each dilution equals 6.2, 2.0, 0.2 and 0.02 μg/cm^2, respectively. Newly emerged adult cat fleas are anesthetized with CO2 to immobilize, and are counted into the scintillation vials with forceps. Five fleas are placed in each vial. These tests are done in replicates of two or three so that there are 10 to 15 fleas per rate/compound. Mortality readings are taken 4 and 24 hours after placing the fleas in the vials. […] Percent mortality is then calculated for each treatment.
# This test evaluates the synergistic effect of piperonyl butoxide on the formula I compounds of this invention. Piperonyl butoxide (PBO) is added in an amount of 1.5% to a 1,000 ppm solution of a test compound in acetone. Dilutions are then made with acetone to provide solutions containing 300, 100, 10 and 1 ppm of the test compound and 0.45%, 0.15%, 0.015% and 0.0015% piperonyl butoxide, respectively. Solutions containing 1,000, 300, 100, 10 and 1 ppm of the test compound alone are used as the control. […]
# [5] = test system: Ctenocephalides felis (cat flea); assay: Contact activity against the adult cat flea (Table I); conditions: topical
# Experimental: as §1
# [6] = test system: Musca domestica (house fly); assay: Activity against the adult house fly (Table V)
# Experimental: This test is designed to evaluate the activity of test compounds against the house fly. Test compounds are dissolved in 100% acetone to 1000, 300, 100, 10 and 1 ppm. 100 μL of each of these dilutions is added to the bottom of a 20 mL glass scintillation vial with a pipettor. The vial is allowed to dry under a fume hood for 15 minutes. The vial is then turned on its side, and 250 μL of each dilution is applied to the sides of the vial. The vial is placed on a rolling machine and allowed to roll under the hood, coating the sides of the vial, until the acetone completely evaporates. The bottom of the vial measures 4.909 cm^2 and the sides measure 4.5 cm high×8.8 cm around, so that the total coated area of the scintillation vial measures 44.51 cm^2. The amount of test compound applied by each dilution equals 7.86, 2.36, 0.79, 0.079, and 0.0079 μg/cm^2, respectively. Included in all tests are two to three replications of untreated vials. Adult house flies which are five to seven days old are chilled in a freezer for five minutes to immobilize, and are placed on a sorting platform which provides a steady stream of CO2 to keep the flies immobile. Five flies are counted into each scintillation vial with forceps. The top of the vial is plugged with a wad of sheet cotton sufficient to contain the flies. These tests are done in replicates of two to four so that there are 10 to 20 flies per rate/compound. Mortality readings are taken 1 and 4 hours after placing the flies in the vials. Flies which are unable to stand when disturbed are considered dead. Percent mortality is then calculated for each treatment.
# [7] = 4 hours, dose 0.079 μg/cm^2, read-out: 4 Hour % Mortality
# [8] = 4 hours, dose 0.790 μg/cm^2, read-out: 4 Hour % Mortality
# [9] = 4 hours, dose 2.360 μg/cm^2, read-out: 4 Hour % Mortality
# [10] = 4 hours, dose 7.860 μg/cm^2, read-out: 4 Hour % Mortality
# [11] = 24 hours, dose 0.079 μg/cm^2, read-out: 24 Hour % Mortality
# [12] = 24 hours, dose 0.790 μg/cm^2, read-out: 24 Hour % Mortality
# [13] = 24 hours, dose 2.360 μg/cm^2, read-out: 24 Hour % Mortality
# [14] = 24 hours, dose 7.860 μg/cm^2, read-out: 24 Hour % Mortality
# [15] = 4 h, read-out: 4 Hour % Mortality
# [16] = 24 h, read-out: 24 Hour % Mortality
# [17] = 1 h, read-out: 1 Hour % Mortality
smiles,measurement,setting,value
F/C(=C\Cc1ccc(F)c(Oc2ccc(F)cc2)c1)C(c1ccc(Cl)cc1)C1CC1 (racemic) [Compound 18],mortality at 0.625 µg/cm2,[1],4%
same,mortality at 1.25 µg/cm2,[1],36%
same,mortality at 2.5 µg/cm2,[1],94%
same,mortality at 5 µg/cm2,[1],99%
same,mortality at 10 µg/cm2,[1],100%
"F/C(=C\Cc1ccc(F)c(Oc2ccccc2)c1)C(c1ccc(Cl)cc1)C1CC1 (stereo not drawn) [Compound 5, 1-[1-(p-Chlorophenyl)-2-fluoro-4-(4-fluoro-3-phenoxyphenyl)-2-butenyl]cyclopropane, (Z)-]",mortality at 0.00079 µg/cm2,"[2]; 4 hours, dose 0.00079 μg/cm^2, read-out: 4 Hour % Mortality",100%
same,mortality at 0.0079 µg/cm2,"[2]; 4 hours, dose 0.0079 μg/cm^2, read-out: 4 Hour % Mortality",100%
same,mortality at 0.079 µg/cm2,[2]; [7],100%
same,mortality at 0.79 µg/cm2,[2]; [8],100%
same,mortality at 2.36 µg/cm2,[2]; [9],100%
same,mortality at 7.86 µg/cm2,[2]; [10],100%
same,mortality at 0.00079 µg/cm2,"[2]; 24 hours, dose 0.00079 μg/cm^2, read-out: 24 Hour % Mortality",100%
same,mortality at 0.0079 µg/cm2,"[2]; 24 hours, dose 0.0079 μg/cm^2, read-out: 24 Hour % Mortality",100%
same,mortality at 0.079 µg/cm2,[2]; [11],100%
same,mortality at 0.79 µg/cm2,[2]; [12],100%
same,mortality at 2.36 µg/cm2,[2]; [13],100%
same,mortality at 7.86 µg/cm2,[2]; [14],100%
same,2 Hour % Mortality,[3],92%
same,mortality at 2 µg/cm2,[4],100%
same,mortality at 6.2 µg/cm2,[4],100%
same,mortality at 0.02 µg/cm2,[5]; [15],34%
same,mortality at 0.2 µg/cm2,[5]; [15],39%
same,mortality at 2 µg/cm2,[5]; [15],79%
same,mortality at 6.2 µg/cm2,"[5]; 4 hours, dose 6.20 μg/cm^2, read-out: 4 Hour % Mortality",98%
same,mortality at 0.02 µg/cm2,[5]; [16],69%
same,mortality at 0.2 µg/cm2,[5]; [16],81%
"CCOc1ccc(C(/C(F)=C/Cc2ccc(F)c(Oc3ccccc3)c2)C2CC2)cc1 (stereo not drawn) [Compound 10, 1-[1-(p-Ethoxyphenyl)-2-fluoro-4-(4-fluoro-3-phenoxyphenyl)-2-butenyl]cyclopropane, (Z)-]",mortality at 0.079 µg/cm2,[2]; [7],100%
same,mortality at 0.79 µg/cm2,[2]; [8],100%
same,mortality at 2.36 µg/cm2,[2]; [9],100%
same,mortality at 7.86 µg/cm2,[2]; [10],100%
same,mortality at 0.079 µg/cm2,[2]; [11],100%
same,mortality at 0.79 µg/cm2,[2]; [12],100%
same,mortality at 2.36 µg/cm2,[2]; [13],100%
same,mortality at 7.86 µg/cm2,[2]; [14],100%
same,mortality at 0.079 µg/cm2,[6]; [17],20%
same,mortality at 0.79 µg/cm2,[6]; [17],20%
same,mortality at 2.36 µg/cm2,[6]; [17],40%
same,mortality at 0.079 µg/cm2,[6]; [15],60%
same,mortality at 2.36 µg/cm2,[6]; [15],100%
same,mortality at 0.79 µg/cm2,[6]; [8],75%
same,mortality at 0.02 µg/cm2,[5]; [15],10%
same,mortality at 0.2 µg/cm2,[5]; [15],68%
same,mortality at 2 µg/cm2,[5]; [15],70%
same,mortality at 6.2 µg/cm2,[5]; [15],100%
same,mortality at 0.02 µg/cm2,[5]; [16],20%
same,mortality at 0.2 µg/cm2,[5]; [16],95%
same,mortality at 2 µg/cm2,[5]; [16],100%
same,mortality at 6.2 µg/cm2,[5]; [16],100%

# Source: US6235754A, “Methods and compositions for protecting animals and humans against attack and infestation by arthropod and helminth parasites” (American Cyanamid Company, priority 1999, dated 2001)
